These molecules were tested against T1, human RXFP1 (Homo sapiens, UniProt Q9HBX9) (assay: hRXFP1 HEK293 cAMP assay (HTRF)). Conditions: HEK293 cells stably expressing human RXFP1; 30 min at rt; intracellular cAMP by HTRF.
T1 construct: expressed in transfected cells
T1 sequence (Q9HBX9 1-757): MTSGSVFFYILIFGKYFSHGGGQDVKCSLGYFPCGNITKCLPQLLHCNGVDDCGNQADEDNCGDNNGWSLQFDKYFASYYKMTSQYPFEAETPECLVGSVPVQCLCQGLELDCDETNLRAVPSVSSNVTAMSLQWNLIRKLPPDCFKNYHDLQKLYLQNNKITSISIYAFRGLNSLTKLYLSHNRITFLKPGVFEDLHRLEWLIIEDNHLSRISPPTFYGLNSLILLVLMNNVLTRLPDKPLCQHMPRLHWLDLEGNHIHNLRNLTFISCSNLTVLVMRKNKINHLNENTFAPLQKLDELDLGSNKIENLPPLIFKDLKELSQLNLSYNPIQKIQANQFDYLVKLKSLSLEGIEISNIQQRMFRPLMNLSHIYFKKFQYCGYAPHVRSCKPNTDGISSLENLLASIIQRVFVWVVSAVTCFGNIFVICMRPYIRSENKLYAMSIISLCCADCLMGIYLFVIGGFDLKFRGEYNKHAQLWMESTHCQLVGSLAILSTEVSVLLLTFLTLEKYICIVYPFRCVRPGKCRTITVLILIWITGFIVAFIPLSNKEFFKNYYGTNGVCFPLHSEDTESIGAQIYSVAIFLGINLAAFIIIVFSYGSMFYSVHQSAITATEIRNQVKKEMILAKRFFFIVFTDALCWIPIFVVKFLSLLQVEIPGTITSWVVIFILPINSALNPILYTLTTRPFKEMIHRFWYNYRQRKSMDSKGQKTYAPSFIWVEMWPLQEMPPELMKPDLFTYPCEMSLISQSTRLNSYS
Type: cell-based
Summary of the method: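 Agonism is measured as cAMP by HTRF, quantified from a standard curve via the 665/590 nm ratio and fitted with a four-parameter logistic equation. Compounds (0.010 nM to 50 μM final, 2% DMSO) were applied for 30 min at rt to human RXFP1-expressing HEK293 cells in assay buffer containing 0.5 mM IBMX.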

EC50 [nM] | SMILES
203 | COc1ccc(C2CCCN(C(=O)C(=O)O)C2)cc1C(=O)Nc1c(C(=O)Nc2ccc(F)c(C(F)(F)F)c2)sc2cc(C(F)(F)F)ccc12 (centres unmarked) [Example 81, 2-(3-(3-((2-((4-fluoro-3-(trifluoromethyl)phenyl)carbamoyl)-6-(trifluoromethyl)benzo[b]thiophen-3-yl)carbamoyl)-4-methoxyphenyl)piperidin-1-yl)-2-oxoacetic acid]
72.6 | COc1ccc(C2CCN(C(=O)C(C)(C)CO)C2)cc1C(=O)Nc1c(C(=O)Nc2ccc(F)c(C(F)(F)F)c2)sc2cc(C(F)(F)F)ccc12 (single isomer, unassigned) [Example 139, N-(4-fluoro-3-(trifluoromethyl)phenyl)-3-(5-(1-(3-hydroxy-2,2-dimethyl-propanoyl)pyrrolidin-3-yl)-2-methoxy-benzamido)-6-(trifluoromethyl) benzo[b] thiophene-2-carboxamide]
48.4 | COc1ccc(C2CCCN(C(=O)C(C)(C)CO)C2)cc1C(=O)Nc1c(C(=O)Nc2ccc(F)c(C(F)(F)F)c2)sc2cc(C(F)(F)F)ccc12 (single isomer, unassigned) [Example 93, N-[4-fluoro-3-(trifluoromethyl)phenyl]-3-{5-[1-(3-hydroxy-2,2-dimethyl-propanoyl)piperidin-3-yl]-2-methoxy-benzamido}-6-(trifluoromethyl)-1-benzothiophene-2-carboxamide]
3300 | COc1ccc(C(=O)N2CC(C)(C)C2)cc1C(=O)Nc1c(C(=O)Nc2ccc(F)c(C(F)(F)F)c2)sc2cc(Cl)ncc12 [Example 240, 6-chloro-3-(5-(3,3-dimethyl-azetidine-1-carbonyl)-2-methoxy-benzamido)-N-(4-fluoro-3-(trifluoromethyl)phenyl)thieno [3,2-c]pyridine-2-carboxamide]
591 | COc1ccc(C2CCN(C(=O)CCO)C2)cc1C(=O)Nc1c(C(=O)Nc2ccc(F)c(C(F)(F)F)c2)sc2cc(C(F)(F)F)ccc12 (centres unmarked) [Example 137, N-(4-fluoro-3-(trifluoromethyl)phenyl)-3-(5-(1-(3-hydroxypropanoyl)pyrrolidin-3-yl)-2-methoxy-benzamido)-6-(trifluoromethyl) benzo[b] thiophene-2-carboxamide]
320 | COc1ccc(C2=NOC3CC(C(C)(C)O)CC23)cc1C(=O)Nc1c(C(=O)Nc2ccc(F)c(C(F)(F)F)c2)sc2cc(C(F)(F)F)ccc12 (single isomer, unassigned) [Example 55, N-(4-fluoro-3-(trifluoromethyl)phenyl)-3-(5-(5-(2-hydroxypropan-2-yl)-3a, 5,6,6a-tetrahydro-4H-cyclopenta[d]isoxazol-3-yl)-2-methoxybenzamido)-6-(trifluoromethyl)benzo[b]thiophene-2-carboxamide]
10.3 | COc1ccc(-c2cc(CNS(C)(=O)=O)ccc2F)cc1C(=O)Nc1c(C(=O)Nc2ccc(F)c(C(F)(F)F)c2)sc2cc(C(F)(F)F)ccc12 [Example 17, N-(4-fluoro-3-(trifluoromethyl)phenyl)-3-(2′-fluoro-4-methoxy-5′-(methylsulfonamidomethyl)-[1,1′-biphenyl]-3-carboxamido)-6-(trifluoromethyl)benzo[b]thiophene-2-carboxamide]
1170 | COc1ccc(C2CC3(C2)CN(S(C)(=O)=O)C3)cc1C(=O)Nc1c(C(=O)Nc2ccc(F)c(C(F)(F)F)c2)sc2cc(C(F)(F)F)ccc12 [Example 204, N-(4-fluoro-3-(trifluoromethyl)phenyl)-3-(2-methoxy-5-(2-(methylsulfonyl)-2-azaspiro[3.3]heptan-6-yl)benzamido)-6-(trifluoromethyl) benzo[b] thiophene-2-carboxamide]
1140 | COc1ccc(C2=NOC3CC(NC(=O)C(C)(C)O)CC23)cc1C(=O)Nc1c(C(=O)Nc2ccc(F)c(C(F)(F)F)c2)sc2cc(C(F)(F)F)ccc12 (single isomer, unassigned) [Example 265, N-[4-fluoro-3-(trifluoromethyl)phenyl]-3-{5-[5-(2-hydroxy-2-methyl-propanamido)-3aH,4H,5H,6H, 6aH-cyclopenta[d] [1,2]oxazol-3-yl]-2-methoxy-benzamido}-6-(trifluoromethyl)-1-benzothiophene-2-carboxamide]
440 | COc1ccc(-c2cc([C@@H](C)O)on2)cc1C(=O)Nc1c(C(=O)Nc2ccc(F)c(C(F)(F)F)c2)sc2cc(C(F)(F)F)ccc12 [Example 275, (R)-N-(4-fluoro-3-(trifluoromethyl)phenyl)-3-(5-(5-(1-hydroxyethyl)isoxazol-3-yl)-2-methoxy-benzamido)-6-(trifluoromethyl) benzo[b] thiophene-2-carboxamide]
2180 | COc1ccc(C2CCCN(CC(C)C)C2)cc1C(=O)Nc1c(C(=O)Nc2ccc(F)c(C(F)(F)F)c2)sc2cc(C(F)(F)F)ccc12 (centres unmarked) [Example 89, N-(4-fluoro-3-(trifluoromethyl)phenyl)-3-(5-(1-isobutylpiperidin-3-yl)-2-methoxy-benzamido)-6-(trifluoromethyl) benzo[b] thiophene-2-carboxamide]
87 | COc1ccc(-c2ccc(F)c(C(=O)O)c2)cc1C(=O)Nc1c(C(=O)Nc2ccc(F)c(C(F)(F)F)c2)sc2cc(C(F)(F)F)ccc12 [Example 13, 4-fluoro-3′-((2-((4-fluoro-3-(trifluoromethyl)phenyl)carbamoyl)-6-(trifluoromethyl)benzo[b]thiophen-3-yl)carbamoyl)-4′-methoxy-[1, 1′-biphenyl]-3-carboxylic acid]
1430 | COc1ccc(-c2cc(C(=O)O)ccc2F)cc1C(=O)Nc1c(C(=O)Nc2ccc(F)c(C(F)(F)F)c2)sc2cc(C)ccc12 [Example 215, 6-fluoro-3′-((2-((4-fluoro-3-(trifluoromethyl)phenyl)carbamoyl)-6-methylbenzo[b]thiophen-3-yl)carbamoyl)-4′-methoxy-[1,1′-biphenyl]-3-carboxylic acid]
254 | COc1ccc(-c2ccc(N3CCOCC3)nc2)cc1C(=O)Nc1c(C(=O)Nc2ccc(F)c(C(F)(F)F)c2)sc2cc(C(F)(F)F)ccc12 [Example 127, N-(4-fluoro-3-(trifluoromethyl)phenyl)-3-(2-methoxy-5-(6-morpholino-pyridin-3-yl)benzamido)-6-(trifluoromethyl) benzo[b] thiophene-2-carboxamide]
400 | COc1ccc(CCCO)cc1C(=O)Nc1c(C(=O)Nc2ccc(F)c(C(F)(F)F)c2)sc2cc(Cl)ncc12 [Example 200, 6-chloro-N-(4-fluoro-3-(trifluoromethyl)phenyl)-3-(5-(3-hydroxypropyl)-2-methoxy-benzamido) thieno[3,2-c]pyridine-2-carboxamide]
360 | COc1ccc(C2=NOC3CN(C(=O)OC(C)(C)C)CC23)cc1C(=O)Nc1c(C(=O)Nc2ccc(F)c(C(F)(F)F)c2)sc2cc(C(F)(F)F)ccc12 (single isomer, unassigned) [Example 244, tert-butyl 3-(3-((2-((4-fluoro-3-(trifluoromethyl)phenyl)carbamoyl)-6-(trifluoromethyl)benzo[b]thiophen-3-yl)carbamoyl)-4-methoxyphenyl)-3a,4,6,6a-tetrahydro-5H-pyrrolo[3,4-d]isoxazole-5-carboxylate]
165 | COc1ccc(C2CCCN(C(=O)C(C)(C)O)C2)cc1C(=O)Nc1c(C(=O)Nc2ccc(F)c(C(F)(F)F)c2)sc2cc(C(F)(F)F)ccc12 (centres unmarked) [Example 92, N-[4-fluoro-3-(trifluoromethyl)phenyl]-3-{5-[1-(2-hydroxy-2-methylpropanoyl)piperidin-3-yl]-2-methoxy-benzamido}-6-(trifluoromethyl)-1-benzothiophene-2-carboxamide]
1760 | COc1cc(C)c(C(=O)N2CC3(C2)CS(=O)(=O)C3)cc1C(=O)Nc1c(C(=O)Nc2ccc(F)c(C(F)(F)F)c2)sc2cc(C(F)(F)F)ccc12 [Example 226, 3-(5-(2,2-dioxido-2-thia-6-azaspiro[3.3]heptane-6-carbonyl)-2-methoxy-4-methylbenzamido)-N-(4-fluoro-3-(trifluoromethyl)phenyl)-6-(trifluoromethyl) benzo[b] thiophene-2-carboxamide]
357 | COc1cc(F)c(C(=O)N2CC(C(C)(C)O)C2)cc1C(=O)Nc1c(C(=O)Nc2ccc(F)c(C(F)(F)F)c2)sc2cc(C(F)(F)F)ccc12 [Example 182, N-(4-fluoro-3-(trifluoromethyl)phenyl)-3-(4-fluoro-5-(3-(2-hydroxypropan-2-yl)azetidine-1-carbonyl)-2-methoxy-benzamido)-6-(trifluoromethyl) benzo[b] thiophene-2-carboxamide]
3770 | COc1ccc(C(=O)NCC(C)(C)O)cc1C(=O)Nc1c(C(=O)Nc2ccc(F)c(C(F)(F)F)c2)sc2cc(C(F)(F)F)ccc12 [Example 237, N3-(2-((4-fluoro-3-(trifluoromethyl)phenyl)carbamoyl)-6-(trifluoromethyl)benzo[b]thiophen-3-yl)-N1-(2-hydroxy-2-methylpropyl)-4-methoxy-isophthalamide]
